From ChEMBL document CHEMBL4138081, “Recent developments of coumarin-containing derivatives and their anti-tubercular activity” (Eur J Med Chem, 2017)
≈ marks a conversion by molar mass, not a printed value.

Key:
[1] = system: Mycobacterium tuberculosis; assay: Antimycobacterial activity against Mycobacterium tuberculosis after 5 days by MABA; format: functional; details: 120 h
[2] = system: Mycobacterium tuberculosis; assay: Antimycobacterial activity against Mycobacterium tuberculosis ATCC 27294 by MABA; format: functional
[3] = system: Mycolicibacterium smegmatis; assay: Potency index, ratio of MIC for 8-OCH3 ciprofloxacin to MIC for test compound for Mycobacterium smegmatis CMCC 93202; format: functional
[4] = system: Mycolicibacterium smegmatis; assay: Potency index, ratio of MIC for rifampin to MIC for test compound for Mycobacterium smegmatis CMCC 93202; format: functional
[5] = system: Mycolicibacterium smegmatis; assay: Potency index, ratio of MIC for moxifloxacin to MIC for test compound for Mycobacterium smegmatis CMCC 93202; format: functional
[6] = system: Mycolicibacterium smegmatis; assay: Potency index, ratio of ciprofloxacin MIC to compound MIC for Mycobacterium smegmatis CMCC 93202; format: functional
[7] = system: Mycolicibacterium smegmatis; assay: Antimycobacterial activity against Mycobacterium smegmatis CMCC 93202; format: functional
[8] = system: Mycobacterium tuberculosis; assay: Antimycobacterial activity against Mycobacterium tuberculosis H37Rv after 12 to 28 days by Lowenstein and Jensen method; format: functional
[9] = system: Mycobacterium tuberculosis; assay: Antimycobacterial activity against Mycobacterium tuberculosis H37Rv […] by BACTEC MGIT method; format: functional
Mycolicibacterium vaccae = assay: Antimycobacterial activity against Mycolicibacterium vaccae 10670; format: functional
[10] = system: Mycobacterium tuberculosis; assay: Antimycobacterial activity against Mycobacterium tuberculosis H37Rv after 72 hrs by alamar blue dye-based broth dilution assay; format: functional
[11] = system: Mycobacterium tuberculosis; assay: Antimycobacterial activity against Mycobacterium tuberculosis H37Rv by broth dilution assay; format: functional
[12] = system: Mycobacterium tuberculosis; assay: Antimycobacterial activity against Mycobacterium tuberculosis H37Rv by MABA; format: functional
[13] = system: Mycobacterium tuberculosis; assay: Growth inhibition of Mycobacterium tuberculosis H37Rv at 6.25 ug/ml by MABA method relative to control; format: functional; details: read-out: GI
[14] = system: Mycobacterium tuberculosis; assay: Antimycobacterial activity against Mycobacterium tuberculosis H37Rv ATCC 27294 by BACTEC method; format: functional
[15] = Cytotoxicity against African green monkey Vero cells by CellTiter 96 non-radioactive cell proliferation assay; format: cell-based; details: chlorocebus sabaeus, read-out: LD50 (the source's name)
[16] = system: Mycobacterium tuberculosis; assay: Antimycobacterial activity against Mycobacterium tuberculosis H37Rv by BACTEC radiometric assay; format: functional
[17] = Selectivity index, ratio of LD50 for African green monkey Vero cells to MIC>99 for Mycobacterium tuberculosis H37Rv; format: toxicity; details: read-out: Selectivity Index

Question: For `Cc1cc(=O)oc2cc(OCc3cn(Cc4cc(=O)oc5ccc6ccccc6c45)nn3)ccc12`, which MIC [1] is on record?
Answer: 6.25 µg/mL (≈ 13.4 µM)

Question: Which MIC [1] does the source give for `Cc1cc(=O)oc2cc(OCc3cn(Cc4cc(=O)oc5cc(Cl)ccc45)nn3)ccc12` here?
Answer: 6.25 µg/mL (≈ 13.9 µM)

Question: For `O=C(N/N=C/c1cccc(O)c1)c1cc2ccccc2oc1=O`, which MIC [2] is on record?
Answer: 50 to 100 µg/mL (≈ 162 to 324 µM)

Question: For `Cc1cc(=O)oc2cc(OCc3cn(Cc4cc(=O)oc5ccc(Cl)cc45)nn3)ccc12`, which MIC [1] is on record?
Answer: 6.25 µg/mL (≈ 13.9 µM)

Question: Which Ratio [3] does the source give for `COc1ccc2cc(C(=O)CN3CCN(c4c(F)cc5c(=O)c(C(=O)O)cn(C6CC6)c5c4OC)CC3)c(=O)oc2c1` here?
Answer: 2 - 8

Question: And the Ratio [4]?
Answer: 2 - 8

Question: And the Ratio [5]?
Answer: 2 - 8

Question: And the Ratio [6]?
Answer: 2 - 8

Question: And the MIC [7]?
Answer: 0.25 µg/mL (≈ 0.433 µM)

Question: Which MIC [2] does the source give for `O=C(N/N=C/c1ccc([N+](=O)[O-])cc1)c1cc2ccccc2oc1=O` here?
Answer: 50 to 100 µg/mL (≈ 148 to 296 µM)

Question: Which MIC [8] does the source give for `N#Cc1ccc(Nc2nc(Oc3cc(=O)oc4ccccc34)nc(N3CCN(c4cccc(C(F)(F)F)c4)CC3)n2)cc1C(F)(F)F` here?
Answer: 100 to 1000 µg/mL (≈ 153 to 1530 µM)

Question: What about the MIC [9] of the same compound?
Answer: > 6.25 µg/mL

Question: Which MIC (Mycolicibacterium vaccae) does the source give for `Cc1ccc2oc(=O)c3c(O)c4cccc(O[C@@H]5O[C@H](C)[C@@H](O)[C@H](O)[C@H]5O[C@@H]5O[C@@H](C)[C@@H](O)[C@@H](O)[C@@H]5O)c4c4oc(=O)c1c2c34` here?
Answer: 1.22 µM (≈ 0.764 µg/mL)

Question: Which MIC [2] does the source give for `COc1cccc(/C=N/NC(=O)c2cc3ccccc3oc2=O)c1` here?
Answer: 50 to 100 µg/mL (≈ 155 to 310 µM)

Question: For `Cc1cc2oc(=O)c(C(c3cccs3)c3c(O)c4cc(C)c(C)cc4oc3=O)c(C)c2cc1C` (stereo unspecified), which MIC [10] is on record?
Answer: 5.22 µM (≈ 2.47 µg/mL)

Question: With `O=c1oc2ccccc2cc1-c1cn2nc(C(F)(F)F)sc2n1` as the compound, how does the MIC [11] read?
Answer: 40 µg/mL (≈ 119 µM)

Question: For `O=C(N/N=C/c1ccc(O)cc1O)c1cc2ccccc2oc1=O`, which MIC [2] is on record?
Answer: 50 to 100 µg/mL (≈ 154 to 308 µM)

Question: For `N#Cc1ccc(Nc2nc(Oc3cc(=O)oc4ccccc34)nc(N3CCN(c4ccccc4F)CC3)n2)cc1C(F)(F)F`, which MIC [8] is on record?
Answer: 100 to 1000 µg/mL (≈ 166 to 1660 µM)

Question: What about the MIC [9] of the same compound?
Answer: > 6.25 µg/mL

Question: Which MIC [8] does the source give for `Cn1c(=O)cc(Oc2nc(Nc3ccc(C#N)c(C(F)(F)F)c3)nc(N3CCN(c4ccc(F)cc4)CC3)n2)c2ccccc21` here?
Answer: 100 to 1000 µg/mL (≈ 162 to 1620 µM)

Question: What about the MIC [9] of the same compound?
Answer: > 6.25 µg/mL

Question: Which MIC [2] does the source give for `COc1ccc(/C=N/NC(=O)c2cc3ccccc3oc2=O)cc1` here?
Answer: 50 to 100 µg/mL (≈ 155 to 310 µM)

Question: With `O=C(N/N=C/c1cccc(Cl)c1)c1cc2ccccc2oc1=O` as the compound, how does the MIC [2] read?
Answer: 50 to 100 µg/mL (≈ 153 to 306 µM)

Question: Which MIC [12] does the source give for `COc1ccc(-c2cc(-c3ccc(O)cc3)nc(/N=c3\ccc4ccccc4o3)n2)cc1` here?
Answer: 9.6 to 240 µg/mL (≈ 22.8 to 569 µM)

Question: And the inhibition of growth at 6.25 µg/mL [13]?
Answer: 37%

Question: Which MIC [2] does the source give for `O=C(N/N=C/c1ccc(O)cc1)c1cc2ccccc2oc1=O` here?
Answer: 50 to 100 µg/mL (≈ 162 to 324 µM)

Question: For `N#Cc1ccc(Nc2nc(Oc3cc(=O)oc4ccccc34)nc(N3CCN(c4ccc(F)cc4)CC3)n2)cc1C(F)(F)F`, which MIC [8] is on record?
Answer: 100 to 1000 µg/mL (≈ 166 to 1660 µM)

Question: And the MIC [9]?
Answer: > 6.25 µg/mL

Question: With `Cn1c(=O)cc(Oc2nc(Nc3ccc(C#N)c(C(F)(F)F)c3)nc(N3CCN(c4cccc(C(F)(F)F)c4)CC3)n2)c2ccccc21` as the compound, how does the MIC [8] read?
Answer: 100 to 1000 µg/mL (≈ 150 to 1500 µM)

Question: And the MIC [9]?
Answer: > 6.25 µg/mL

Question: With `N#Cc1ccc(Nc2nc(Oc3cc(=O)oc4ccccc34)nc(N3CCN(c4ccc(C(F)(F)F)cc4)CC3)n2)cc1C(F)(F)F` as the compound, how does the MIC [8] read?
Answer: 100 to 1000 µg/mL (≈ 153 to 1530 µM)

Question: What about the MIC [9] of the same compound?
Answer: > 6.25 µg/mL

Question: With `COc1ccc(-c2cc(-c3ccc([N+](=O)[O-])cc3)nc(/N=c3\ccc4ccccc4o3)n2)cc1` as the compound, how does the MIC [12] read?
Answer: 9.6 to 240 µg/mL (≈ 21.3 to 533 µM)

Question: What about the inhibition of growth at 6.25 µg/mL [13] of the same compound?
Answer: 65%

Question: With `Cn1c(=O)cc(Oc2nc(Nc3ccc(C#N)c(C(F)(F)F)c3)nc(N3CCN(c4ccc(C(F)(F)F)cc4)CC3)n2)c2ccccc21` as the compound, how does the MIC [8] read?
Answer: 100 to 1000 µg/mL (≈ 150 to 1500 µM)

Question: What about the MIC [9] of the same compound?
Answer: > 6.25 µg/mL

Question: Which MIC [8] does the source give for `Cn1c(=O)cc(Oc2nc(Nc3ccc(C#N)c(C(F)(F)F)c3)nc(N3CCN(c4ccccc4F)CC3)n2)c2ccccc21` here?
Answer: 100 to 1000 µg/mL (≈ 162 to 1620 µM)

Question: And the MIC [9]?
Answer: > 6.25 µg/mL

Question: For `O=c1oc2ccccc2cc1C(c1cccs1)c1c(O)c2ccccc2oc1=O` (stereo unspecified), which MIC [10] is on record?
Answer: 5.22 µM (≈ 2.1 µg/mL)

Question: Which MIC [12] does the source give for `Oc1ccc(-c2cc(-c3ccc(Cl)cc3)nc(/N=c3\ccc4ccccc4o3)n2)cc1` here?
Answer: 9.6 to 240 µg/mL (≈ 22.5 to 564 µM)

Question: What about the inhibition of growth at 6.25 µg/mL [13] of the same compound?
Answer: 70%

Question: With `CCCc1cc(=O)oc2c3c(c4c(c12)OC(C)(C)C=C4)O[C@H](C)[C@@H](C)[C@@H]3O` [CALANOLIDE A] as the compound, how does the MIC [14] read?
Answer: 3.13 µg/mL (≈ 8.45 µM)

Question: Which MIC [2] does the source give for `NC(=O)c1cnccn1` [PYRAZINAMIDE] here?
Answer: > 100 µg/mL

Question: Which CC50 [15] does the source give for `C[C@H]1[C@H](C)Oc2c3c(c4c(-c5ccccc5)cc(=O)oc4c2[C@H]1O)OC(C)(C)C=C3` [SOULATTROLIDE] here?
Answer: > 10 µg/mL

Question: And the MIC99 [16]?
Answer: 3.13 µg/mL (≈ 7.74 µM)

Question: What about the selectivity ratio [17] of the same compound?
Answer: > 3.2
